# Laboratory results from patent US9055743B2, “Alpha, beta-unsaturated imines” (BAYER INTELLECTUAL PROPERTY GMBH, priority 2010, dated 2015).
# Columns and labels:
# [1] = tested on: larvae of the mustard beetle (Phaedon cochleariae); test: Phaedon test (PHAECO spray treatment); format: in vivo; conditions: 500 g/ha, spray, after 7 days
# Procedure, shortened: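 Mustard beetle larvae were placed on dried Brassica pekinensis leaf discs previously spray-treated with test compound; formulation used acetone and dimethylformamide solvents plus alkylaryl polyglycol ether emulsifier, diluted with emulsifier-containing water.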
# [2] = tested on: caterpillars of the army worm (Spodoptera frugiperda); test: Spodoptera frugiperda test (SPODFR spray treatment); format: in vivo; conditions: 500 g/ha, spray, after 7 days
# Procedure, shortened: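 Activity in % read 7 days after armyworm caterpillars were placed on dried, sprayed Zea mays leaf discs; 0% means none killed. Spray prepared from an acetone/DMF concentrate with emulsifier, diluted with emulsifier-containing water.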
# [3] = tested on: green peach aphid (Myzus persicae); test: Myzus test (MYZUPE spray treatment); format: in vivo; conditions: 500 g/ha, spray, after 6 days
# Procedure, shortened: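 Activity read as % aphid kill 6 days after treatment (0% = none killed). Compound formulated in acetone and dimethylformamide plus alkylaryl polyglycol ether, diluted in water and sprayed onto infested Brassica pekinensis leaf discs.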
# [4] = tested on: Anopheles gambiae (homocygus kdr); test: Anopheles test (ANPHGB surface treatment); format: in vivo; conditions: 100 mg/m^2, two hours after contact, exposition 30 minutes
# Procedure, shortened: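 Adult mosquitoes held 30 min on a glazed tile treated with a dried 2 mg/ml acetone solution of compound. Mortality scored at 24 h (100% = all killed), knock-down percentage at 2 h post-contact.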
# [5] = tested on: Anopheles funestus strain FUMOZ-R; format: in vivo; conditions: 100 mg/m^2, two hours after contact, exposition 30 minutes
# Protocol: Anopheles Test (ANPHFU Surface Treatment) Solvent: Acetone
# (§1) To produce a suitable preparation of active compound, the active compound is dissolved in acetone (2 mg/ml). The active compound preparation is pipetted onto a glazed tile and, after drying, adult mosquitoes of the species Anopheles funestus strain FUMOZ-R (Hunt et al., Med Vet Entomol. 2005 September; 19(3):271-5) are placed onto the treated tile. The exposition time is 30 minutes.
# (§2) Two hours after contact to the treated surface, the knock-down proportion of the test animals in % is determined.
# (§3) 24 hours after contact to the treated surface, the mortality in % is determined. Here, 100% means that all mosquitoes have been killed; 0% means that none of the mosquitoes has been killed.
# Aedes aegypti = test: Aedes test (AEDSAE surface treatment); format: in vivo; conditions: 100 mg/m^2, two hours after contact, exposition 30 minutes
# Procedure, shortened: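 Adults were held 30 minutes on glazed tiles carrying a dried acetone deposit of compound (2 mg/ml solution). Readouts: percent knock-down 2 h after contact, percent mortality 24 h after contact, where 0% means no mosquitoes killed.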
# [6] = logP determination by HPLC on reversed-phase columns (C18), LC-MS neutral; format: physicochemical; conditions: pH 7.8, HPLC on C18, calibration with alkan-2-ones
# Boophilus microplus = Boophilus microplus test (BOOPMI injection); format: in vivo; conditions: 20 μg/animal, injection into the abdomen, after 7 days
# Protocol: Boophilus microplus Test (BOOPMI Injection)
# (§4) Solvent: Dimethyl Sulphoxide
# To produce a suitable preparation of active compound, 10 mg of active compound are mixed with 0.5 ml of solvent and the concentrate is diluted with solvent to the desired concentration. The solution of active compound is injected into the abdomen (Boophilus microplus), and the animals are transferred into dishes and kept in a climatized room. The activity is assessed by […] of fertile eggs.
# After 7 days, the effect in % is determined 100% means that none of the ticks has laid any fertile eggs.
# [7] = tested on: Boophilus microplus strain Parkhurst, SP-resistant; test: Boophilus microplus test (DIP); format: in vivo; conditions: 100 ppm, after 7 days
# Protocol: Boophilus microplus Test (DIP) Test Animals: Adult Fat Females of the Boophilus microplus Strain Parkhurst—SP-Resistant) Solvent: Dimethyl Sulphoxide
# 10 mg of active compound are dissolved in 0.5 ml of dimethyl sulphoxide. To produce a suitable formulation, the active compound solution is diluted with water to the particular desired concentration.
# This active compound preparation is pipetted into tubes. 8-10 ticks are transferred into a further tube provided with holes. The tube is dipped into the active compound preparation, with all the ticks being wetted completely. After the liquid has run off, the ticks are transferred to filter discs in plastic dishes and kept in a climatized room. After 7 days, the activity is checked for deposition of fertile eggs. Eggs whose fertility is not visible from the outside are kept in glass tubes in a climatized cupboard until the larvae have hatched. An activity of 100% means that no tick has laid fertile eggs.
# Ctenocephalides felis = Ctenocephalides felis oral test (CTECFE); format: in vivo; conditions: 100 ppm in citrated cattle blood, after two days
# Protocol: Ctenocephalides Felis Oral Test (CTECFE)
# Solvent: 1 Part by Weight of Dimethyl Sulphoxide
# To produce a suitable preparation of active compound, 10 mg of active compound are mixed with 0.5 ml of dimethyl sulphoxide. Part of the concentrate is diluted with citrated cattle blood, and the desired concentration is prepared.
# About 20 unfed adult fleas (Ctenocephalides felis) are placed into a chamber which is closed at the top and bottom with gauze. A metal cylinder whose bottom end is closed with parafilm is placed onto the chamber. The cylinder contains the blood/active compound preparation, which can be taken up by the fleas through the parafilm membrane. After two days, the kill in % is determined 100% means that all fleas have been killed; 0% means that none of the fleas have been killed.
# Lucilia cuprina larvae = test: Lucilia cuprina test (LUCICU); format: in vivo; conditions: 100 ppm, after 2 days
# Protocol: Lucilia cuprina Test (LUCICU)
# as §4
# (§5) To produce a suitable preparation of active compound, 10 mg of active compound are mixed with 0.5 ml of dimethyl sulphoxide and the concentrate is diluted with water to the desired concentration. Vessels containing horsemeat treated with the active compound preparation of the desired concentration are populated with about 20 Lucilia cuprina larvae.
# After 2 days, the kill in % is determined. 100% means that all larvae have been killed; 0% means that none of the larvae have been killed.
# Musca domestica = Musca domestica test (MUSCDO); format: in vivo; conditions: 100 ppm, after 2 days
# Protocol: Musca domestica Test (MUSCDO)
# as §4
# as §5, with “a sponge” for “horsemeat”, “adult Musca domestica.” for “about 20 Lucilia cuprina larvae.”
# After 2 days, the kill in % is determined 100% means that all flies have been killed; 0% means that none of the flies have been killed.
# [8] = tested on: cat fleas (Ctenocephalides felis, fully sensitive laboratory strain); test: Contact test against fleas in-vitro (CTECFE contact); format: in vivo; conditions: 500 g/ha, after 48 h
# Procedure, shortened: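 Test tubes coated from acetone solutions by rotation, top concentration 500 g/ha (500 μg/dm^2) on tube surface, serial 1:5 dilutions. 10-20 CO2-anesthetized adult fleas held at room temperature for 24 and 48 h. Activity scored versus acetone control: knock-down or death of all fleas = 100%.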
# [9] = tested on: greenhouse red spider mite (Tetranychus urticae); test: Tetranychus test; OP-resistant (TETRUR spray treatment); format: in vivo; conditions: 500 g/ha, spray, after 6 days
# Procedure, shortened: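 Activity, as % of mites killed (0–100%), was assessed 6 days after spraying. The spray was compound formulated with acetone, DMF and emulsifier, then diluted in water. It was applied to Phaseolus vulgaris leaf discs carrying every life stage of an OP-resistant spider mite strain.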
# Culex quinquefasciatus = test: whole plant or invertebrate; format: in vivo; conditions: 100 mg/m^2, two hours after contact, exposition 30 minutes
# Protocol: Culex Test (CULXFA Surface Treatment) Solvent: Acetone
# as §1, with “Culex quinquefasciatus” for “Anopheles funestus strain FUMOZ-R (Hunt et al., Med Vet Entomol. 2005 September; 19(3):271-5)”
# as §2, §3
SMILES,activity (beetle larvae killed) [1] [%],activity (caterpillars killed) [2] [%],activity (aphids killed) [3] [%],knock-down activity [4] [%],knock-down activity [5] [%],knock-down activity (Aedes aegypti) [%],logP [6],activity (100% = none of the ticks has laid any fertile eggs) (Boophilus microplus) [%],activity (100% = no tick has laid fertile eggs) [7] [%],activity (kill in %) (Ctenocephalides felis) [%],activity (kill in %) (Lucilia cuprina larvae) [%],activity (kill in %) (Musca domestica) [%],activity against cat fleas [8] [%],activity (spider mites killed) [9] [%],knock-down activity (Culex quinquefasciatus) [%]
Cc1ccc(N=C2C(=CSc3ccccc3)C3CCC2C3)cc1 (stereo not drawn) [Example 1-100],100,100,100,100,100,100,–,–,–,–,–,–,–,–,–
CC(=O)Nc1ccc2c(c1)CCC(=CSc1ccc(F)cc1)C2=Nc1ccc(C)cc1 [Example 1-48],–,–,–,–,–,–,"LC-MS (neutral)*: logP = 4.64, (M + H)^+ = 431.",–,–,–,–,–,–,–,–
Cc1ccc(N=C2C(=CSc3ccc(F)cc3)CCc3cc(F)cc(F)c32)cc1 (mixture of isomers) [Example 1-33],100,100,80,–,–,–,–,100,100,95,100,80,100,–,–
Cc1ccc(N=C2C(=CSc3ccc(F)cc3)C(C)c3cccc(F)c32)cc1 (mixture of isomers) [Example 1-27],100,100,100,100,–,100,–,100,100,100,100,100,100,100,–
Cc1ccc(N=C2CCCCCC2=CSc2ccccc2)cc1 [Example 1-38],–,–,–,100,–,100,"LC-MS (neutral)*: logP = 6.20, (M + H)^+ = 322",–,–,–,–,–,100,–,–
Cc1ccc(N=C2C(=CSc3ccc(F)cc3)CCc3sccc32)cc1 (mixture of isomers) [Example 1-26],100,100,100,–,–,–,–,100,100,95,100,100,100,100,–
Cc1ccc(N=C2C(=CSc3ccc(F)cc3)COc3ccccc32)cc1 [Example 1-36],100,100,100,100,–,100,–,100,–,90,100,–,100,100,100
CC1C(=CSc2ccccc2)C(=Nc2ccc(Cl)cc2)c2ccccc21 (stereo not drawn) [Example 1-11],–,–,–,–,–,–,"LC-MS (neutral)*: logP = 6.38, (M + H)^+ = 376",–,–,–,–,–,–,–,–
Cc1ccc(N=C2C(=CSc3ccc(F)cc3)CCCC2=Cc2ccccc2)cc1 [Example 1-56],–,–,–,–,–,–,"LC-MS (neutral)*: logP = 7.01, (M + H)^+ = 414.",–,–,–,–,–,–,–,–
Cc1ccc(N=C2C(=CSc3ccc(F)cc3)C3CCC2C3)cc1 (stereo not drawn) [Example 1-40],100,–,–,100,100,100,–,–,–,–,–,–,–,100,–
Cc1ccc(N=C2C(=CSc3ccc(F)cc3)COc3cc(F)ccc32)cc1 [Example 1-58],100,100,100,100,–,100,–,–,–,–,–,–,100,100,100
Cc1ccc(N=C2C(=CSc3ccccc3)C(C)c3ccccc32)cc1 (mixture of isomers) [Example 1-5],100,100,100,100,–,–,–,100,100,100,100,100,100,100,–
Cc1ccc(N=C2C(=CSc3ccc(F)cc3)CCc3cc(C)ccc32)cc1 [Example 1-46],100,100,100,100,–,100,–,–,–,–,–,–,100,100,100
